According to ChEMBL document CHEMBL1201862, “PubChem BioAssay data set” (2004):
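Results reflect a 48-hour exposure of cells in 96-well plates to compound at five concentrations. At the GI50, growth is halved.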 The source made the active and inactive calls. Rule as the data show it: active = GI50 up to about 1.1 µM and inactive = higher.

Experiments:
Assay in all cases: NCI-60 cell line screen, 48 h
786-0 = tested on: 786-0
A498 = tested on: A498
A549 = tested on: A549
ACHN = tested on: ACHN
CAKI-1 = tested on: CAKI-1
CCRF-CEM = tested on: CCRF-CEM
COLO 205 = tested on: COLO 205
DLD-1 = tested on: DLD-1
DMS-114 = tested on: DMS-114
DMS-273 = tested on: DMS-273
EKVX = tested on: EKVX
HCC 2998 = tested on: HCC 2998
HCT-116 = tested on: HCT-116
HCT-15 = tested on: HCT-15
HL-60 = tested on: HL-60
HOP-18 = tested on: HOP-18
HOP-62 = tested on: HOP-62
HOP-92 = tested on: HOP-92
HT-29 = tested on: HT-29
IGROV-1 = tested on: IGROV-1
K562 = tested on: K562
KM-20L2 = tested on: KM-20L2
KM12 = tested on: KM12
LOX IMVI = tested on: LOX IMVI
LXFL 529 = tested on: LXFL 529
M14 = tested on: M14
M19-MEL = tested on: M19-MEL
MOLT-4 = tested on: MOLT-4
Malme-3M = tested on: Malme-3M
NCI-H226 = tested on: NCI-H226
NCI-H23 = tested on: NCI-H23
NCI-H460 = tested on: NCI-H460
NCI-H522 = tested on: NCI-H522
OVCAR-3 = tested on: OVCAR-3
OVCAR-4 = tested on: OVCAR-4
OVCAR-5 = tested on: OVCAR-5
OVCAR-8 = tested on: OVCAR-8
RPMI-8226 = tested on: RPMI-8226
RXF 393 = tested on: RXF 393
RXF 631 = tested on: RXF 631
SF-268 = tested on: SF-268
SF-295 = tested on: SF-295
SF-539 = tested on: SF-539
SK-MEL-28 = tested on: SK-MEL-28
SK-MEL-2 = tested on: SK-MEL-2
SK-MEL-5 = tested on: SK-MEL-5
SK-OV-3 = tested on: SK-OV-3
SN12C = tested on: SN12C
SNB-19 = tested on: SNB-19
SNB-75 = tested on: SNB-75
SNB-78 = tested on: SNB-78
SR = tested on: SR
SW-620 = tested on: SW-620
TK-10 = tested on: TK-10
U-251 = tested on: U-251
UACC-257 = tested on: UACC-257
UACC-62 = tested on: UACC-62
UO-31 = tested on: UO-31
XF498 = tested on: XF498

For `CC1NOC(=O)C1/N=N/c1ccccc1Br` (centres undefined), the GI50 (786-0) was 17.5 µM (inactive), the GI50 (A498) was 26.8 µM (inactive) and the GI50 (A549) was 24.2 µM (inactive). For the same compound, the GI50 (ACHN) was 35.3 µM (inactive), the GI50 (CAKI-1) was 16.8 µM (inactive) and the GI50 (CCRF-CEM) was 25.8 µM (inactive). For the same compound, the GI50 (COLO 205) was 20.6 µM (inactive), the GI50 (DLD-1) was 31.6 µM (inactive) and the GI50 (DMS-114) was 18.9 µM (inactive). For the same compound, the GI50 (DMS-273) was 31.6 µM (inactive), the GI50 (EKVX) was 34.2 µM (inactive) and the GI50 (HCC 2998) was 41.2 µM (inactive). For the same compound, the GI50 (HCT-116) was 32.5 µM (inactive), the GI50 (HCT-15) was 28.4 µM and the GI50 (HL-60) was 18.9 µM (inactive). The GI50 (HOP-18) was 26.5 µM (inactive), the GI50 (HOP-62) was 43.9 µM (inactive) and the GI50 (HOP-92) was 24 µM (inactive). The GI50 (HT-29) was 39.6 µM (inactive), the GI50 (IGROV-1) was 36 µM (inactive) and the GI50 (K562) was 22.9 µM (inactive). For the same compound, the GI50 (KM-20L2) was 38.3 µM (inactive), the GI50 (KM12) was 21.2 µM (inactive) and the GI50 (LOX IMVI) was 23.9 µM (inactive). The GI50 (LXFL 529) was 15.7 µM (inactive), the GI50 (M14) was 21.4 µM (inactive) and the GI50 (M19-MEL) was 19 µM (inactive). The GI50 (MOLT-4) was 29 µM (inactive), the GI50 (Malme-3M) was 26.2 µM (inactive) and the GI50 (NCI-H226) was 31.6 µM (inactive). The GI50 (NCI-H23) was 22.6 µM (inactive), the GI50 (NCI-H460) was 21.7 µM (inactive) and the GI50 (NCI-H522) was 18.5 µM (inactive). The GI50 (OVCAR-3) was 20.5 µM (inactive), the GI50 (OVCAR-4) was 39.3 µM (inactive) and the GI50 (OVCAR-5) was 40.7 µM (inactive). The GI50 (OVCAR-8) was 22 µM (inactive), the GI50 (RPMI-8226) was 28.8 µM (inactive) and the GI50 (RXF 393) was 13.9 µM (inactive). The GI50 (RXF 631) was 31.3 µM (inactive), the GI50 (SF-268) was 28.4 µM (inactive) and the GI50 (SF-295) was 40.7 µM (inactive). For the same compound, the GI50 (SF-539) was 22.3 µM (inactive), the GI50 (SK-MEL-28) was 31 µM (inactive) and the GI50 (SK-MEL-2) was 16.2 µM (inactive). For the same compound, the GI50 (SK-MEL-5) was 15.3 µM (inactive), the GI50 (SK-OV-3) was 38.1 µM (inactive) and the GI50 (SN12C) was 24.5 µM (inactive). For the same compound, the GI50 (SNB-19) was 37.4 µM (inactive), the GI50 (SNB-75) was 31.4 µM (inactive) and the GI50 (SNB-78) was 26.5 µM (inactive). The GI50 (SR) was 25.1 µM (inactive), the GI50 (SW-620) was 13.8 µM (inactive) and the GI50 (TK-10) was 24.5 µM (inactive). The GI50 (U-251) was 22.4 µM (inactive), the GI50 (UACC-257) was 24 µM (inactive) and the GI50 (UACC-62) was 19.9 µM (inactive). The GI50 (UO-31) was 18.6 µM (inactive) and the GI50 (XF498) was 20.3 µM (inactive).
